Where a name gives a salt, the structure may show the parent alone.
Columns and labels:
[1] = Hygroscopicity (vapor sorption analysis); assay type: physicochemical
Experimental: Hygroscopicity data was obtained on a VTI Symmetrical Vapor Sorption Analyzer Model SGA-1. Data was collected at room temperature from 5-95% relative humidity and back, 5% relative humidity change per step. Equilibrium conditions were 0.01 weight percent change in 5 minutes with a maximum equilibration time of 180 minutes.

[2] = In vitro dissolution studies with bulk drug and granules at 37° C.; assay type: physicochemical; conditions: dissolution times of 60 to 180 minutes
Experimental: The dissolution properties of tablets prepared in the manner described in Part A of Example 3 (i.e., tablets containing 100 mg of Compound A on a free phenol basis and 0, 5, 10 or 15 wt. % HPMC) were tested in the following manner: Two tablets containing 0, 5, 10, or 15 wt. % HPMC were added to a USP Type II dissolution vessel containing 500 mL of 0.01 N HCl (pH=2) as the dissolution medium (ambient temperature). After the tablets were allowed to sink to the bottom of the vessel, the medium was stirred at 100 rpm for 60 minutes and then at 150 rpm for up to an additional 120 minutes. Samples (5 mL) were removed from medium at 5, 10, 15, 20, 30, 60, 90 and 120 minutes and at the conclusion of the test (180 minutes). Each sample was diluted 1:1 with 50:50 (volume:volume) acetonitrile:water, and then analyzed via HPLC or W spectrophotometry to determine the concentration of Compound A in the solution. (Note: The HPLC and UV methods were determined to be equivalent; the choice of method for a particular test was based on such factors as equipment availability.)
In vitro dissolution studies similar to the study described above, but conducted with unformulated bulk Compound A K salt and formulated bulk in granules and conducted at 37° C.

In the case of `Cc1nnc(C(=O)NC(C)(C)c2nc(C(=O)NCc3ccc(F)cc3)c(O)c(=O)n2C)o1` [Compound A K salt], the “weight when equilibrated back down to 5% RH” value ([1]; 5% RH, after 95% RH) is reported as “returned back to approximately its dry weight”, the “weight increase when equilibrated at 95% RH” value ([1]; 95% RH at 25° C.) is reported as 1.8% and the “XRPD analysis of the material after the hygroscopicity experiment (phase)” value ([1]; after 5-95% RH and back) is reported as “had not changed phases”. The “enhancement in drug solubility in the presence of HPMC versus absence of HPMC” value [2] was 10 fold.

From patent publication US8771733B2, “Pharmaceutical composition containing an anti-nucleating agent” (Merck Sharp & Dohme Corp., priority 2004, dated 2014)
